# Calls of active or inactive are those of the source.
# Tests used:
# [1] = mitochondrial function rescue without frataxin homolog – Friedreich's ataxia, plus single-dose screen, dose response (AID 1465); assay type: functional;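 note: yeast depleted of Yfh1p frataxin homolog grown on glycerol needing respiration; WST-1 tetrazolium dye reduction as measure of cellular dehydrogenase metabolic activity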
# [2] = molecular target: T1, Rac GTPase-activating protein 1 (Homo sapiens, UniProt Q9H0H5); experiment: blockers of MgcRacGAP-driven Rac1 GTP hydrolysis – biochemical, ADP Hunter fluorescence, primary and confirmatory, confirmation (AID 624330); assay type: functional
# T1 sequence (Q9H0H5 whole entry): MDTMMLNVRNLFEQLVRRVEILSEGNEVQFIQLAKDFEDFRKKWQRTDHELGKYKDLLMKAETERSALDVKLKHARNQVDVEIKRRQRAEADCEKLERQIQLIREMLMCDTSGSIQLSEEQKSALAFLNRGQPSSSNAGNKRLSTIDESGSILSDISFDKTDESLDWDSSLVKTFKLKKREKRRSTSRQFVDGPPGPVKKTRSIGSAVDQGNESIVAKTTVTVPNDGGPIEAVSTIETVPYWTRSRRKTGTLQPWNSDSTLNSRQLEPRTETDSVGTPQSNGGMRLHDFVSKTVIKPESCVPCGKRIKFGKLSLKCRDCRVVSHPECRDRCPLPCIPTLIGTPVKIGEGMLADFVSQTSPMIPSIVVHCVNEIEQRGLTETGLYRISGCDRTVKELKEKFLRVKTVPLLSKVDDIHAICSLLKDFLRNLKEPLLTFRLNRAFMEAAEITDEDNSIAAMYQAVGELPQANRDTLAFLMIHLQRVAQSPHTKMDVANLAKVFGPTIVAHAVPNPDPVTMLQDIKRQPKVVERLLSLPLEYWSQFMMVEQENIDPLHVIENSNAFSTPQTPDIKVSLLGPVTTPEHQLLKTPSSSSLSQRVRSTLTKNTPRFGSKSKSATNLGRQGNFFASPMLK
# [3] = Counterscreen for IDE inhibitors: Luminescence-based cell-based high throughput dose response assay to identify compounds that are cytotoxic to HEK cells. [Related pubchem assays: 434962 (Primary screen (IDE inhibitors in singlicate)), 449730 (Counterscreen (Cytotoxicity in triplicate)), 435028 (Confirmation (IDE inhibitors in triplicate)) …; assay type: functional; settings: HEK293
# Protein skinhead-1 = molecular target: T2, Protein skinhead-1 (Caenorhabditis elegans, UniProt P34707); assay type: functional
# T2 sequence (P34707 whole entry): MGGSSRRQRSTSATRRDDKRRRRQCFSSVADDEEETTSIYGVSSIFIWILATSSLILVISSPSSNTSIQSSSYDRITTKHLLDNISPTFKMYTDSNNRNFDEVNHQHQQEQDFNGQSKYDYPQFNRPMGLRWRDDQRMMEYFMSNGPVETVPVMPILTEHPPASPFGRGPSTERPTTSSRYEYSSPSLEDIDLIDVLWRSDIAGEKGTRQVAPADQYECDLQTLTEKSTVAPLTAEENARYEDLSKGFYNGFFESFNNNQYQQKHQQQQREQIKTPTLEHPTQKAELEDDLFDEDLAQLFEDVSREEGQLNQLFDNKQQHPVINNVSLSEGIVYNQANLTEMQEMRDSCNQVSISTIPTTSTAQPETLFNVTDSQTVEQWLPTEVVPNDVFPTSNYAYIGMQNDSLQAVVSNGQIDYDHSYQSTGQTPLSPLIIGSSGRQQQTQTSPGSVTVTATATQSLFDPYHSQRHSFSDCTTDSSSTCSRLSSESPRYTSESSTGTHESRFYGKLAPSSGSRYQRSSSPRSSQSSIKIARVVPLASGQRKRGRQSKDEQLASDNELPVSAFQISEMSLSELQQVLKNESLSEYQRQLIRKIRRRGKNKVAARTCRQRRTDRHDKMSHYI
# Insulin-degrading enzyme = molecular target: T3, Insulin-degrading enzyme (Homo sapiens, UniProt P14735); experiment: Dose Response: Fluorescence polarization-based cell-based high throughput dose response assay for inhibitors of insulin-degrading enzyme (IDE). [Related pubchem assays: 434962 (Primary screen (IDE inhibitors in singlicate)), 449730 (Counterscreen (Cytotoxicity in triplicate)), 435028 (Confirmation (IDE inhibitors in triplicate)), 434984 (Summary …; assay type: functional
# T3 sequence (P14735 whole entry): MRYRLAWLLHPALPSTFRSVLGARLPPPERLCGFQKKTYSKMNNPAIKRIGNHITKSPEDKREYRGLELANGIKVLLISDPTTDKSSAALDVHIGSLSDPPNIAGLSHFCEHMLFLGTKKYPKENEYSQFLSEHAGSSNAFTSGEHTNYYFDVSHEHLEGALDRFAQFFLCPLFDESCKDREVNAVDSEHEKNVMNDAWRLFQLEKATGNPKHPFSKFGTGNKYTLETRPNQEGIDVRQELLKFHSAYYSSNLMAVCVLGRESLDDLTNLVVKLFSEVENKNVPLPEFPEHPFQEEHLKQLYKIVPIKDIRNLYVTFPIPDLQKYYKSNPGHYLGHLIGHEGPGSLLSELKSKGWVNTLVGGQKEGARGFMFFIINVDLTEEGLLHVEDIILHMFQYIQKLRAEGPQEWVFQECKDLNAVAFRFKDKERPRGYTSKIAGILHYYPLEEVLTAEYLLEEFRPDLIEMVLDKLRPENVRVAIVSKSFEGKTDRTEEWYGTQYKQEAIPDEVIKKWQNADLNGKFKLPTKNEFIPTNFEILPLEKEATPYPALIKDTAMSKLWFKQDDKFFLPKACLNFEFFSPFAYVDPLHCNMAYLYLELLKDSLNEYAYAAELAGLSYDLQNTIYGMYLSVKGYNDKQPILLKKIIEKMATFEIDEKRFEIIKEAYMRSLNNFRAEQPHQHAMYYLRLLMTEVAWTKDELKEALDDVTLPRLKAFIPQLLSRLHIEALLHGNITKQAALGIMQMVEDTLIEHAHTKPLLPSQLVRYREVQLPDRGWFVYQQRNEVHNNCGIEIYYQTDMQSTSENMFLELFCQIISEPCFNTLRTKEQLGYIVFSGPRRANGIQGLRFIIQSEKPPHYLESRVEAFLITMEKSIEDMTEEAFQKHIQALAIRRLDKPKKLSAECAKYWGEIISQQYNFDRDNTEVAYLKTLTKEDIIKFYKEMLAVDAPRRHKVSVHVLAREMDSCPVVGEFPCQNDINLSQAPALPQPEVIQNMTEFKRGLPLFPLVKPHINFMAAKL
# [4] = molecular target: Transitional endoplasmic reticulum ATPase (Homo sapiens, UniProt P55072, C522A); experiment: C522A mutant p97 ATPase inhibitors, dose response, counter-screen for p97 inhibitor project, biochemical, luminescence (AID 1544)
# [5] = molecular target: Transitional endoplasmic reticulum ATPase (Homo sapiens, UniProt P55072); experiment: p97 ATPase inhibitors, dose response, biochemical (AID 1534)
# [6] = molecular target: Melanin-concentrating hormone receptor 1 (Homo sapiens, UniProt Q99705); experiment: Fluorescence-based counterscreen for antagonists of the G-protein coupled receptor 7 (GPR7): cell-based high throughput dose response assay to identify antagonists of the melanin-concentrating hormone receptor 1 (MCHR1).; assay type: functional
# Cytochrome P450 2D6 = Cytochrome P450 2D6 (Homo sapiens, UniProt P10635);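 note: CYP2D6 member of a cytochrome P450 panel assay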
# [7] = A Cell Based Secondary Assay To Explore Cytotoxicity of Compounds that Sensitize Mycobacterium Tuberculosis to Beta-Lactam Antibiotics.; assay type: functional
# Staphylococcus aureus = experiment: Inhibitors of Bacterial Quorum Sensing Structure Activity Relationship (SAR) Analysis: Dose Response Assay. [Related pubchem assays: 700, 527 ]; assay type: functional, organism-based
# [8] = molecular target: Lysosomal acid glucosylceramidase (Homo sapiens, UniProt P04062); experiment: Dose response cell-based high throughput screening assay to identify enhancers of beta-glucosidase activity. [Related pubchem assays: 784 ]; assay type: functional
# Sequence of Lysosomal acid glucosylceramidase (P04062 whole entry): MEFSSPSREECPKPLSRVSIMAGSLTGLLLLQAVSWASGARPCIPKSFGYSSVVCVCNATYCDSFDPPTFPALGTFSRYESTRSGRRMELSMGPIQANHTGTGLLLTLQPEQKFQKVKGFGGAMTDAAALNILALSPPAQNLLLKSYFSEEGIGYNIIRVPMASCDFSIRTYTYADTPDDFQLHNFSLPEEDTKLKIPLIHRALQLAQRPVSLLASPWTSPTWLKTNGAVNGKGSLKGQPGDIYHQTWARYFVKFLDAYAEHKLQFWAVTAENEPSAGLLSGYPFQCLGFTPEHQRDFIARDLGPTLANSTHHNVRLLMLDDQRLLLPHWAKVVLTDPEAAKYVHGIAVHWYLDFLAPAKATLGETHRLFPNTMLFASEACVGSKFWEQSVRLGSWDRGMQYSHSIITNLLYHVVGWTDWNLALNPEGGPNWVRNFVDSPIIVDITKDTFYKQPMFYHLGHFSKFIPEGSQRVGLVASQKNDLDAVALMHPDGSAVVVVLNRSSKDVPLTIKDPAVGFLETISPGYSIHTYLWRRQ
# Sequence of Melanin-concentrating hormone receptor 1 (Q99705 whole entry): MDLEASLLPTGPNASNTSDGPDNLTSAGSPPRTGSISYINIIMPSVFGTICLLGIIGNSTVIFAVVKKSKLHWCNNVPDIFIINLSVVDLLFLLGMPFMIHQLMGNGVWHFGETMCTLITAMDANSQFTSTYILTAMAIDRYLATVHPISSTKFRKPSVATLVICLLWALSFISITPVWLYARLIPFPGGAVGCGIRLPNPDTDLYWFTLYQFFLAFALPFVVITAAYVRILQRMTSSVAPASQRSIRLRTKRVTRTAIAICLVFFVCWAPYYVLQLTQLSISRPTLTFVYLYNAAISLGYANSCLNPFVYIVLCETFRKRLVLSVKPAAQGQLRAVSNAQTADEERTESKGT
# Sequence of Transitional endoplasmic reticulum ATPase (Homo sapiens, UniProt P55072, C522A) (P55072 2-806 C522A limits assumed): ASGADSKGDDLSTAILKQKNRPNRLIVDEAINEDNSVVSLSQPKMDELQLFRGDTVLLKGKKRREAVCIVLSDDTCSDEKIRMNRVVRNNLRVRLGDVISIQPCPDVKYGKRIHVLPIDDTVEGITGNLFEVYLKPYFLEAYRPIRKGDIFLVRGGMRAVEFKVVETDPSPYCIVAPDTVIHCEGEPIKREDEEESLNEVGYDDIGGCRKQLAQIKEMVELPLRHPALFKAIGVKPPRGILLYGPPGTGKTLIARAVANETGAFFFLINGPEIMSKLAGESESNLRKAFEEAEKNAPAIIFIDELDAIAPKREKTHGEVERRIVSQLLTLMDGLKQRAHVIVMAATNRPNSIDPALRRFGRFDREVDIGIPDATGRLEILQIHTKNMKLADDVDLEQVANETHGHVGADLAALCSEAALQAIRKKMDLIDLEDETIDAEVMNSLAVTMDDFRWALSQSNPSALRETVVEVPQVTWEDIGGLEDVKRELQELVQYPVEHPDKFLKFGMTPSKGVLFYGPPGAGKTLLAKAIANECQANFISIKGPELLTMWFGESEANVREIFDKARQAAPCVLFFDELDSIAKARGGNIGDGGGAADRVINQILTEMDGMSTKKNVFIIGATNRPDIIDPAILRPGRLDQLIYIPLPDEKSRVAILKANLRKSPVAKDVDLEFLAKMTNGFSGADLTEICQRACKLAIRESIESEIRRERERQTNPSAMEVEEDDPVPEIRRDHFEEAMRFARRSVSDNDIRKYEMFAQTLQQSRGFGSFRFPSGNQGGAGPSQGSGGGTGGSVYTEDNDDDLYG
# Sequence of Transitional endoplasmic reticulum ATPase (Homo sapiens, UniProt P55072) (P55072 whole entry): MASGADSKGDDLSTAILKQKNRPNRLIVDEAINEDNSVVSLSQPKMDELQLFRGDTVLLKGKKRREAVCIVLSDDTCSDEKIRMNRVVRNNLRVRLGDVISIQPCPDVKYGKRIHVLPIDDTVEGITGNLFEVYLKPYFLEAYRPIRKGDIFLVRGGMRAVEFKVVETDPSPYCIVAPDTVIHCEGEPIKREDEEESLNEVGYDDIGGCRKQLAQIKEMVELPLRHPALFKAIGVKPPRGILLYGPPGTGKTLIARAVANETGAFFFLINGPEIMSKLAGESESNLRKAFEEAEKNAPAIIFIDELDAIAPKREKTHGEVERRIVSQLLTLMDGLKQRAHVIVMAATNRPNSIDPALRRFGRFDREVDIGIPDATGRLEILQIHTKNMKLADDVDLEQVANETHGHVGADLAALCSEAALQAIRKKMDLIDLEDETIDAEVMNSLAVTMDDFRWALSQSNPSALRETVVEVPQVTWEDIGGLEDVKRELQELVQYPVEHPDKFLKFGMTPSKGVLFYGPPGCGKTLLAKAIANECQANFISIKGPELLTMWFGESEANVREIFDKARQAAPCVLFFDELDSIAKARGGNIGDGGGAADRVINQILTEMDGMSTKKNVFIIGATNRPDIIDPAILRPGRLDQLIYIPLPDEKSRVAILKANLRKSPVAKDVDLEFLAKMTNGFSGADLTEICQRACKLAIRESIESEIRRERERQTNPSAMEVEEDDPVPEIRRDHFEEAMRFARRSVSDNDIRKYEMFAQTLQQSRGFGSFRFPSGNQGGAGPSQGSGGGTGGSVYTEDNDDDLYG
# Sequence of Cytochrome P450 2D6 (P10635 whole entry): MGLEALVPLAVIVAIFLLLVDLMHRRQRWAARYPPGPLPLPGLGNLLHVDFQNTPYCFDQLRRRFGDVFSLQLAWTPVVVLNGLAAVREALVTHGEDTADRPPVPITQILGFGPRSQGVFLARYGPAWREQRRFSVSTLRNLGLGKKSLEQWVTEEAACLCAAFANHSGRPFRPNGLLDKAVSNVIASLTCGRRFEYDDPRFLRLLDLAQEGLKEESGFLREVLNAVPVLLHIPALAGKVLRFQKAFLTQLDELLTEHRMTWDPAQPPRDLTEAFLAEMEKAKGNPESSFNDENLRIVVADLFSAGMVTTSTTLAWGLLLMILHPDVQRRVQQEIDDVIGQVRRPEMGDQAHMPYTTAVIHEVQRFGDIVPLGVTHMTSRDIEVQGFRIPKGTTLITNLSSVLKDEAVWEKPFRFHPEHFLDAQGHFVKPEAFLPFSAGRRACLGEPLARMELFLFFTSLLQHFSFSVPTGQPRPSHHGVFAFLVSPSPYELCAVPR
structure (smiles),measurement,setting,value
Cc1c(N2C(=O)/C(=C\c3ccc(N(C)C)cc3)N(C)C2=S)c(=O)n(-c2ccccc2)n1C,EC50,[1],> 100 µM (active)
same,IC50,[2],74.4 µM (active)
same,IC50,[3],37.9 µM (not active)
same,IC50,Protein skinhead-1,57.2 µM (inactive)
same,IC50,Insulin-degrading enzyme,13.9 µM (not active)
COc1ccc2ccccc2c1/C=N/NC(=O)c1sc(N)c(C#N)c1C,IC50,[4],> 50 µM (not active)
same,IC50,[5],2.58 µM (active)
COC(=O)[C@@]1(Cc2ccc(F)cc2)[C@H]2c3cc(C(=O)N(C)C)n(Cc4ccccc4)c3C[C@H]2CN1C(=O)c1ccccc1,IC50,[6],11.1 µM (not active)
same,AC50,Cytochrome P450 2D6,20 µM (inconclusive)
CCOc1ccc(/C=N/NC(=O)c2ccccc2O)cc1CN1CC2CC(C1)c1cccc(=O)n1C2 (configuration not stated),CC50,[7],23 µM (active)
N#Cc1c(NC(=O)CN2C(=O)c3ccccc3C2=O)oc(-c2ccccc2)c1-c1ccccc1,IC50,Staphylococcus aureus,1.99 µM (active)
CC(C)CCn1nnnc1C(c1ccccc1)N1CCC(C(N)=O)CC1 (configuration not stated),EC50,[8],> 10 µM (not active)

# Reference: ChEMBL document CHEMBL1201862, “PubChem BioAssay data set” (2004)
